Legend:
[1] = oral administration of the approved dose of 200 μg/kg; read-out: maximum plasma concentration (Cmax); cited from earlier work
SARS-CoV-2 virus = details: cited from earlier work
SARS-CoV-2 = assay: viral load by real-time (RT) PCR in the nasal mucosa of SARS-CoV-2 positive patients; assay type: in vivo
Text: The term “viral load” is well known to a person skilled in the art. The term “viral load” is a measure of the severity of an active viral infection, and can be determined by methods known to the person skilled in the art. As an Example, the viral load can be calculated by estimating the live amount of virus in an involved body fluid such as a number of RNA copies per milliliter of blood plasma. For example, the viral load can be determined by a real-time (RT) PCR test.
Ivermectin tablets as produced in Example 1 were administered for seven days in a daily dose of 600 μg/kg once daily to 9 patients (IVM) which have been tested to be positive for SARS-CoV-2, whereas 7 patients (control) which have been tested to be positive for SARS-CoV-2, received placebo tablets during said 7 days period.
The viral load was measured by a real-time (RT) PCR test on treatment days 1, 3, 5 and 7 in the nasal mucosa.

[2] = oral administration of the ivermectin tablets, 600 μg/kg once daily; patient with 100% viral load reduction
[3] = increasing doses from 150 μg/kg/day to 1600 μg/kg/day, onchoceriasis patients; cited from earlier work

In the case of ivermectin, the Cmax [1] is listed as 50 nM, the IC50 (SARS-CoV-2 virus; SARS-CoV-2 replication in vitro, read-out: concentration resulting in 50% inhibition (IC50)) is listed as 2000 nM and the “inhibition of replication of SARS-CoV-2 virus in vitro” value (SARS-CoV-2 virus; ivermectin at 5 μM) is listed as “inhibit the replication of SARS-CoV-2 virus in vitro”. For the same substance, the “reduction in viral load” value (SARS-CoV-2; Day 7, 600 μg/kg once daily for seven days, 9 patients, nasal mucosa) was “more than 50%”, the “reduction of the viral load compared with control” value (SARS-CoV-2; each timepoint (days 1, 3, 5, 7), 600 μg/kg once daily, nasal mucosa) was “greater reduction of the viral load at each timepoint” and the “Decay rate of viral load, single patient” value (SARS-CoV-2; the patient with 183 ng/ml IVM concentration) was 0.54 day⁻¹. The “viral load reduction in the nasal mucosa, single patient” value (SARS-CoV-2; the patient with 183 ng/ml ivermectin concentration in the blood) was 100%, the “ivermectin (IVM) concentration in the blood, single patient” value [2] was 183 ng/mL and the tolerability [3] was “well tolerated”.

From patent US20220023221A1, “Oral Unit Dosage Form Of Ivermectin” (CHEMO RESEARCH, S.L., priority 2020, published 2022)
